{"source": "patent US20100204159A1", "about": "“ORGANIC COMPOUNDS AND THEIR USES” (priority 2006, published 2010)", "origin": "cited, not measured here", "test_system": "HCV", "settings": "ribavirin alone; Davis, Gastroenterology 118:S104-S114, 2000"}
{"compound": "NC(=O)c1ncn([C@@H]2O[C@H](CO)[C@@H](O)[C@H]2O)n1", "note": "[Ribavirin, 1-β-D-ribofuranosyl-1-1,2,4-triazole-3-caroxamide]", "values": [{"measurement": "effect on serum levels of HCV-RNA", "result": "does not lower serum levels of HCV-RNA"}, {"measurement": "patients in whom serum amino transferase levels are reduced to normal", "result": "40 % of patients"}]}
